We go through two compounds from US20170071976A1, “PHARMACEUTICAL SOLUTION HAVING ANTI-TUMOR EFFECT-ENHANCING AND TOXICITY-REDUCING EFFECT, AND PHARMACEUTICAL COMPOSITION COMPRISING SAME” (priority 2014, published 2017).

The subject of assay [1] is NCI-H460 lung cancer cell line. As to the kind of experiment: MTT assay: in vitro inhibition of growth by deuterium oxide. The format is cell-based, human. As for the experimental part: Studies of in vitro inhibition of growth of human tumor cells by deuterium oxide, by the MTT (3-(4,5-dimethylthiazol-2-yl)-2,5-diphenyltetrazolium bromide) assay
1. A bottle of cells that had been cultured for 3 to 4 days and were in the exponential phase was taken, a suitable amount of 0.25% Trypsin-EDTA solution was added thereto to detach the cells from the wall, and the cells were suspended in 10 ml RPMI 1640 medium containing 10% FBS. 2. The cells were counted on a hemocytometer, and generally viable cells should be not less than 97%. 3. The cell suspension was diluted with a complete medium to prepare a suspension containing 1×10^4 cells/ml. 4. To each well of a 12-well culture plate, 300 μl cell suspension was added. The addition of cells should be finished within 4 hours. The plate was placed in an incubator at 37° C. and 5% CO2 for 24 hours. 5. Powdery RPMI Medium 1640 (Gibco, USA, Cat#: 31800-022) was dissolved in deuterium oxide (provided by Cambridge Isotope Laboratories, Inc. (US)) to prepare a cell culture medium (unless particularly specified, all culture media used in the Examples hereinafter were prepared from powdery RPMI Medium 1640 and deuterium oxide) at a concentration shown in Table 1, which was added into the cell culture plate. 6. The cell culture plate was incubated for 3 days in an incubator at 37° C., 5% CO2 and 100% humidity. 7. A solution of 1 mg/ml MTT was prepared in a serum-free RPMI1640 medium, added to the plate at 200 μl/well, and incubated at 37° C. for 4 hours, to allow MTT to be reduced to formazan. 8. The supernatant was removed by pipetting, 200 μl DMSO was added to dissolve formazan, and the solution was well mixed on a platform shaker. 9. Absorbance of each well was measured on an ELISA reader with a detection wavelength of 570 nm and a reference wavelength of 450 nm. 10. The assay was repeated one more time.
Calculation of results: Inhibition of growth of tumor cells by deuterium oxide was calculated using tumor cells treated with sodium chloride physiological solution as a control group. Inhibition of cell growth was plotted against amounts of deuterium oxide to obtain a dose response curve, from which the half maximal inhibitory concentration (IC50) of deuterium oxide was derived.
Inhibition of tumor cell growth (%)=(1−OD test/OD control)×100%

Assay [2] deals with human lung cancer A549 cells. As to the kind of experiment: Cell invasion assayed by Transwell. It is filed as cell-based. The note with it: invaded cells, control 183.0 ± 12.3. As for the experimental part:
Cell lines: human colon cancer HCT-116 cells and human lung cancer A549 cells were provided by NANJING […] BIOTECH. CO., LTD. […] The cell suspension was centrifuged at 800 to 1,000 rpm for 5 min, and the supernatant was discarded; 1.4. A complete culture medium was added to the cell pellet which was well mixed by gentle pipetting, the cell suspension was transferred to a culture flask, and the cells were cultured by supplementing culture medium. 1. […] After incubation of cells with the test drugs for 24 hours, serum was removed, and the cells were incubated under starvation with an incomplete culture medium for 24 hours; 3. Matrigel was placed at 4° C. in advance to thaw overnight; 4. Thawed Matrigel was 1:1 diluted with the incomplete culture medium, 30 μl diluted Matrigel was added to the upper compartment of Transwell and incubated at 37° C. for 120 min to gel the Matrigel; 5. Cells from different groups were digested, counted, and then adjusted to a density of 1×10^5 cells/ml with the incomplete culture medium, 100 μl cell suspension was added to the upper compartment (small compartment) of Transwell, and 500 μl medium containing 20% FBS was added to the lower compartment of Transwell; 6. A 24-well cell culture plate was placed in an incubator at 37° C. and 5% CO2 to culture the cells for 24 hours; 7. […] The assay was repeated one more time.

Assay [3] has as its system human colon cancer HCT-116 cells inoculated into the peritoneal cavity. As to the kind of experiment: Survival of nude mice bearing HCT-116 cells, 42° C. intraperitoneal retention lavage with hydroxyethyl starch or sodium chloride deuterium oxide solution and 5-FU. The note with it: 42° C. NS 10 ml/kg + 5-FU 20 mg/kg, i.p. lavage x 5. It is filed as in vivo. Here is the method:
Comparison of survival time of nude mice bearing human colon cancer HCT-116 cells upon 42° C. hyperthermic intraperitoneal retention lavage using a hydroxyethyl starch deuterium oxide solution in combination with 5-FU and using a sodium chloride deuterium oxide solution in combination with 5-FU.
Animal: 4 to 5 week-aged male nude mice, provided by Shanghai SIPPR-BK Laboratory Animal Co. Ltd.
Cell lines: human colon cancer cell line HCT-116 was provided by NANJING KEYGEN BIOTECH. CO., LTD.
Modeling: 0.2 ml suspension of HCT-116 cancer cells containing 1×10^7 cells/ml (2×10^6 cells in total) was inoculated into the peritoneal cavity of the nude mice.
Grouping and dosing: the mouse model was established 7 to 8 days after inoculation into the nude mice, and the mice were randomized with 18 animals/group.
5-FU was separately dissolved in the hydroxyethyl starch deuterium oxide solution at 42° C., and in the sodium chloride deuterium oxide solution at 42° C., for intraperitoneal lavage of tumor-bearing mice.
1). […]
The peritoneal cavity of nude mice was lavaged with the above compositions which were retained for 20 min in the peritoneal cavity after being introduced, which was performed once a day for 5 successive times. The body weight and abdomen circumference of the nude mice were measured on each day before administration of the drugs, and the daily living status of mice was observed. […]

For the compound `[2H]O[2H]` [Deuterium oxide], the “Inhibition of growth (%)” value in assay [1] (deuterium oxide 1.2% (v/v)) was found to be 1.15%; in assay [1] (deuterium oxide 2.5% (v/v)) it was 9.40%; in assay [1] (deuterium oxide 5% (v/v)), 11.27%; in assay [1] (deuterium oxide 10% (v/v)), 9.47%; in assay [1] (deuterium oxide 20% (v/v)), 11.60%; in assay [1] (deuterium oxide 30% (v/v)) it was 30.58%. Besides, the “Inhibition of growth (%)” value turned out to be 42.05% in assay [1] (deuterium oxide 40% (v/v)); 53.09% in assay [1] (deuterium oxide 50% (v/v)); 69.50% in assay [1] (deuterium oxide 60% (v/v)); 82.33% in assay [1] (deuterium oxide 70% (v/v)); 98.06% in assay [1] (deuterium oxide 80% (v/v)). In assay [1] (expressed in v/v %), this compound registered an IC10 of 5.60%. In assay [1] (expressed in v/v %), this compound had an IC50 of 48.75%. Further, the “Number of cells (A549)” value in assay [2] (deuterium oxide 1.8% (v/v)) came to 74.3 ± 11.0; in assay [2] (deuterium oxide 7.5% (v/v)), 43.0 ± 4.4; in assay [2] (deuterium oxide 15% (v/v)), 29.3 ± 1.5; in assay [2] (deuterium oxide 30% (v/v)), 22.0 ± 1.7; in assay [2] (deuterium oxide […] (v/v)) it was 54.0 ± 2.0.

As for `O=c1[nH]cc(F)c(=O)[nH]1` [Example 5-FU, 5-fluorouracil], the “T/C(%)” value in assay [3] is recorded as 138.7%. Besides, the “MST” value in assay [3] (control 12.4 ± 2.9) turned out to be 17.2 ± 2.2 days.
